A short description of this assay: Sweetness potency compared to 5-10% sucrose. It counts as functional.
In turn, `CC12CCC(C1)C(C)(C)C2OC(=O)C(NC(=O)[C@@H](N)CC(=O)O)c1ccsc1` (some centres not stated) had a Potency of 2300. For `CC1CCC(C)C1OC(=O)C(NC(=O)[C@@H](N)CC(=O)O)c1ccco1` (some centres not stated) the value was 400; for `COC(=O)C(NC(=O)[C@@H](N)CC(=O)O)C(=O)O[C@@H]1C(C)(C)C2CC[C@]1(C)C2` (stereo in doubt; 2), 30000; for `CC12CCC(C1)C(C)(C)C2OC(=O)C(Cc1cccs1)NC(=O)[C@@H](N)CC(=O)O` (some centres not stated), 0. For `COC(=O)C(NC(=O)[C@@H](N)CC(=O)O)C(=O)O[C@@H]1C(C)(C)C2CC[C@]1(C)C2` (stereo in doubt; 3) the value was 50000; for `CC12CCC(C1)C(C)(C)C2OC(=O)C(NC(=O)[C@@H](N)CC(=O)O)c1cccs1` (some centres not stated), 2000. `CC12CCC(C1)C(C)(C)C2OC(=O)C(NC(=O)[C@@H](N)CC(=O)O)C1CCCO1` (some centres not stated): the Potency was found to be 0.

Molecule `CC12CCC(C1)C(C)(C)[C@H]2OC(=O)[C@H](NC(=O)[C@@H](N)CC(=O)O)c1ccco1` (some centres not stated) registered a Potency of 16500.

`CC1(C)C2CC[C@](C)(C2)[C@@H]1OC(=O)C(NC(=O)[C@@H](N)CC(=O)O)c1ccccc1` (stereo in doubt; 5) displayed a Potency of 3700.

The molecule `CC12CCC(C1)C(C)(C)[C@@H]2OC(=O)C(NC(=O)[C@@H](N)CC(=O)O)c1ccco1` (some centres not stated) yielded a Potency of 630. Take `CC12CCC(C1)C(C)(C)C2OC(=O)C(NC(=O)[C@@H](N)CC(=O)O)c1c[nH]cn1` (some centres not stated): the Potency worked out at 350. For `CC1(C)C2CC[C@](C)(C2)[C@@H]1OC(=O)C(NC(=O)[C@@H](N)CC(=O)O)c1ccccc1` (stereo in doubt; 4) the value was 1200.

For the origin of these results see ChEMBL document CHEMBL1125162, “High-potency dipeptide sweeteners. 2. L-aspartylfuryl-, thienyl-, and imidazolylglycine esters” (J Med Chem, 1990).
